Results: paper PMC6413125 (International Journal of Molecular Sciences, 2019)

Tests used:
Assay type in all cases: biochemical
[1] = biological target: T1, Yeast Prion Protein Sup35p (Sup35p7–13) (Saccharomyces cerevisiae, UniProt P05453)
T1 construct: gene SUP35

[2] = biological target: T2, nucleophosmin 1 (NPM1_264–277) (Homo sapiens, UniProt P06748); test: ESI-MS adducts; IC50 from ThT aggregation assay; CD
T2 construct: gene NPM1; helix H2 of C-terminal domain, residues 264–277 ([…])

Aβ21–40 = biological target: T3, Aβ21–40 (Homo sapiens, UniProt P05067); test: ESI-MS adducts ([…] and […]); IC50 from ThT aggregation assay
T3 construct: gene APP
T3 sequence (P05067 692-711): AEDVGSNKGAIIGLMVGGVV

CSC1=[S+][Pt-2]([Cl])([S+](C)(C)=O)[O]C(c2cccc(O)c2)=C1 (stereo not drawn) [compound 1, 1]
IC50 [1]: 55 ± 1.12 µM | IC50 [2]: 62.3 ± 1.3 µM | IC50 (Aβ21–40): 19.9 ± 1.6 µM
